Source: patent US4954488A, “Method of treating hyperaldosteronism using 17β-cyclopropylaminoandrostene derivatives” (Merrell Dow Pharmaceuticals Inc., priority 1989, dated 1990)

Target: T1, enzymes in the synthesis of aldosterone (Rattus norvegicus, UniProt P30099)
T1 construct: From these animals, adrenal capsule/glomerulosa homogenates were prepared; from tissue; host or cells: adrenal capsule/glomerulosa homogenate of sodium-deficient young male Sprague-Dawley rats
Test: Inhibition of aldosterone formation from [3H]-DOC in rat adrenal capsule/glomerulosa homogenates
Assay type: biochemical, Sprague-Dawley rats
Details: pH 7.4, 25° C.; for IC50: 40 minute preincubation data, 10-minute assay, 1 μM [3H]-DOC, read-out: IC50 (half-maximal inhibition of aldosterone formation); for t50 (t1/2 for enzyme inactivation at infinite inhibitor concentration) / Ki: linear regression of t1/2 vs. 1/[I], Kitz-Wilson plots; for Ki: read-out: Ki for time-dependent inhibition
Experimental: Young male Sprague-Dawley rats were maintained on a sodium-deficient diet for about two weeks prior to use. From these animals, adrenal capsule/glomerulosa homogenates were prepared (6 mg/ml) in pH 7.4 assay buffer [MgCl2 8.5 mM, CaCl2 2.7 mM, KCl 3.13 mM, NaCl 7.591 mM, TRIS 50 mM and 0.1% triethylamine] and centrifuged 500xg for 10 minutes.
Assays were conducted in 35 ml glass tubes maintained at 25° C. in a Dubnoff shaker with 95% O2 /5% CO2. The tubes contained the following material: 100 μl of an NADPH^+ generating system, 300 μl of adrenal capsular/glomerulosa cytosol, and 50 μl of test compound or buffer (control). After initial preincubation intervals of 20 minutes, the 10-minute assay was started by the addition of 50 μl of tritium-labelled substrate, i.e., 1 μM [^3 H]-DOC. Reactions were quenched by the addition of 5 ml of ethyl acetate and non-radiolabelled steroids were also added. The samples were extracted twice with 5 ml of ethyl acetate and the solvent evaporated under nitrogen at 30°-40° C.
Residues were redissolved in methanol:water (40:60) with 0.1% triethylamine and high performance liquid chromatography was used to separate products on a C18 reverse phase (5μ ODS-Hypersil) column (4.6×250 mm, Shannon) with a 1 ml/min flow rate using an MeOH:H20 gradient (solvent A 10/90:solvent B 90/10).
Substrate remaining and products formed were monitored by UV absorbance at 246 nm and the amount of steroid compound present was quantified by [^3 H] radioactivity. The concentration of compound to produce half-maximal inhibition (IC50) of aldosterone formation from the 40 minute preincubation data was graphically estimated from a linear-log plot of percent inhibition vs. log of the compound concentration. The Ki for time-dependent inhibition and the t1/2 for enzyme inactivation at infinite inhibitor concentration (t50) was determined by the linear regression analyses of t1/2 vs. 1/[I] data of Kitz-Wilson plots. Using this procedure, the following results were observed: […]

| Compound | IC50 | t50 (t1/2 for enzyme inactivation at infinite inhibitor concentration) | Ki |
| --- | --- | --- | --- |
| C[C@]12CC[C@H]3[C@@H](CCC4=CC(=O)CC[C@@]43C)[C@@H]1CC[C@@H]2NC1CC1 [17β-(Cyclopropylamino)androst-4-en-3-one] | 180 nM |  |  |
| C[C@]12CC[C@H]3[C@@H](CC=C4C[C@@H](O)CC[C@@]43C)[C@@H]1CC[C@@H]2NC1CC1 [17β-(Cyclopropylamino)androst-5-en-3β-ol] | 1100 nM | 9.7 min | 4850 nM |
| CN(C1CC1)[C@H]1CC[C@H]2[C@@H]3CC=C4C[C@@H](O)CC[C@]4(C)[C@H]3CC[C@]12C [17β-[N-Methyl(cyclopropylamino)]-androst-5-en-3β-ol] | 350 nM | 9.0 min | 350 nM |
| CN(C1CC1)[C@H]1CC[C@H]2[C@@H]3CCC4=CC(=O)CC[C@]4(C)[C@H]3CC[C@]12C [17β-[N-Methyl(cyclopropylamino)]androst-4-en-3-one] | 130 nM | 15.4 min | 140 nM |
